The test system of experiment [1] is gelatin degradation in cancer tissue (human lung cancer cell line Ma44). Kind of experiment: In situ zymography of tumor mass from Ma44-bearing nude mice after oral administration. The note with it: for inhibition of the gelatin degradation: nude mice; for Quantitative analysis using Optimas Ver.6: vehicle 53.4; for Quantitative analysis using Optimas Ver.6 (brightness in each tissue/size in each tissue): 200 mg/kg orally, two hours after administration, vehicle 49.2. The format is in vivo. The procedure:
Fifteen g of acid-treated swine cutis gelatin was dissolved in 123 g of pure water, and the solution was added with 1.2 ml of 1,2-bis(vinylsulfonylacetamido)ethane (4%) as a hardening agent. The solution was uniformly applied to a polyethylene terephthalate film undercoated with gelatin so as to obtain a dried membrane having a thickness of about 7 μm, and the membrane was dried to obtain a gelatin thin membrane. The gelatin thin membrane was stored at room temperature until the use.
Human lung cancer cell line Ma44 (CANCER RESEARCH 59, 1231-35 (1999)) that was known to produce MMP-2 in a large amount was used. Nude mice (six weeks aged, female, CLEA Japan, Inc.) were transplanted intraperitoneally with 1×10^5 Ma44 cells, and, 14 days later, BPHA or (−)BPHA was administered orally to the animals at 200 mg/kg. As control, a vehicle (a physiological saline containing 0.4% Tween80, 0.5% carboxymethyl cellulose, and 0.9% benzyl alcohol) was similarly administered. Two hours after the administration, the cancer-bearing mice were autopsied to remove the tumor mass formed at the abdominal wall and the mesenterium, and the mass was subjected to the in situ zymography experiment.
The tumor mass was embedded in OCT Compound (SAKURA), and then Microtone/Cryostat TISSUE TEK II (Miles-Sankyo) was used to prepare […] having a thickness of 8 μm. The […] were placed gently onto the gelatin thin membrane previously prepared to give samples, and then the membranes were placed into a humid bath to prevent them from drying, followed by leaving the membranes to stand in an incubator at 37° C. After reacted for 3.5 hours, the thin membranes were taken out, and stained with a 1% Amido Black solution (Wako Pure Chemical Industries) for 15 minutes. Subsequently, the membranes were treated with a decolorizing solution (70% methanol, 10% acetic acid) for 10 minutes.
The cancer tissue on the thin membrane was observed under light microscopy to determine the area where the gelatin degradation was recognized. Additionally, the slide scanner (Nikon 35 mm film scanner: COOLSCAN II) was used to analyze quantitatively the tone with the software Optimas Ver.6 (Optimas Corporation).
was orally administered at dosages of 0.2, 2.0, 20.0, and 200.0 mg/kg in stead of the administrations of BPHA and (−)BPHA, treatments were conducted for in situ zymography.

The target in the next experiment is T1, MMP-1 (Homo sapiens, UniProt P03956).
T1 sequence (P03956 100-469): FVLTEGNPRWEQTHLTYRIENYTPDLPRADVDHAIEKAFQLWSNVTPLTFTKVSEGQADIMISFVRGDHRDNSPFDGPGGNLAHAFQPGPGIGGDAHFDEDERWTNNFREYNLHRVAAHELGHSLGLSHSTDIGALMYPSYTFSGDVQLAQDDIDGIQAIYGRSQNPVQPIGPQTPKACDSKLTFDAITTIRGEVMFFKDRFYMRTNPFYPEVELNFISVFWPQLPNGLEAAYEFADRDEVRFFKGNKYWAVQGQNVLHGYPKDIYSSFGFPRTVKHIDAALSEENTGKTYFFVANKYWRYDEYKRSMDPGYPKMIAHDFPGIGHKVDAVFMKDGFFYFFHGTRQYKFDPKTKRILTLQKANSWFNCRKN
The experiment is described as follows: MMP inhibitory activity IC50, MMP-1. Format: biochemical.

A further experiment concerns the target T2, MMP-2 (Homo sapiens, UniProt P08253).
T2 sequence (P08253 110-660): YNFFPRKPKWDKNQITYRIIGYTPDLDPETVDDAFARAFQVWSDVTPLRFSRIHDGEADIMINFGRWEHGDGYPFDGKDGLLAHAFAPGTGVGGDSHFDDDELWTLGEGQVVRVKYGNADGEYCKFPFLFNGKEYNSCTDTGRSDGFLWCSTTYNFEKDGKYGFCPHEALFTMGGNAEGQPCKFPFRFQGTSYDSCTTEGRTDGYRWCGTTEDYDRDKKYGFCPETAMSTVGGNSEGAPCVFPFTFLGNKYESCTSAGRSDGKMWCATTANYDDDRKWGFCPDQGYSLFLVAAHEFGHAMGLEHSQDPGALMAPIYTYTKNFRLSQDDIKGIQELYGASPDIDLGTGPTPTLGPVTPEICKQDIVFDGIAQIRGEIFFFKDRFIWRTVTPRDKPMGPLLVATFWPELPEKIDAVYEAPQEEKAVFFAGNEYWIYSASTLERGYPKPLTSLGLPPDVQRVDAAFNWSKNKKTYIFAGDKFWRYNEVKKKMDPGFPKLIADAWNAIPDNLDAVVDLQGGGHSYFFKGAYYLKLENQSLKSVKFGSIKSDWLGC
Kind of experiment: MMP inhibitory activity IC50, MMP-2. Format: biochemical.

The target in another experiment is MMP-3 (Homo sapiens, UniProt P08254). The experiment is described as follows: MMP inhibitory activity IC50, MMP-3. The format is biochemical.
The target in the next experiment is T3, MMP-7 (Homo sapiens, UniProt P09237).
T3 sequence (P09237 95-267): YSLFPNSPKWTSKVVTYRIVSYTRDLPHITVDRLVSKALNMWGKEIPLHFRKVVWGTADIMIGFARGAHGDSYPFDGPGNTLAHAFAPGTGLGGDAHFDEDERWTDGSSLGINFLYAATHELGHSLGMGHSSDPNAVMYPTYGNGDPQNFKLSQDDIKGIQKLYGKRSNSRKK
Kind of experiment: MMP inhibitory activity IC50, MMP-7. Format: biochemical.

The next experiment addresses MMP-9 (Homo sapiens, UniProt P14780). Kind of experiment: MMP inhibitory activity IC50, MMP-9. Format: biochemical.
A further experiment concerns the target MMP-14 (Homo sapiens, UniProt P50281). The experiment is described as follows: MMP inhibitory activity IC50, MMP-14. Format: biochemical.

Molecules are shown by their SMILES.

Chain of MMP-3 (P08254 100-477, species assumed): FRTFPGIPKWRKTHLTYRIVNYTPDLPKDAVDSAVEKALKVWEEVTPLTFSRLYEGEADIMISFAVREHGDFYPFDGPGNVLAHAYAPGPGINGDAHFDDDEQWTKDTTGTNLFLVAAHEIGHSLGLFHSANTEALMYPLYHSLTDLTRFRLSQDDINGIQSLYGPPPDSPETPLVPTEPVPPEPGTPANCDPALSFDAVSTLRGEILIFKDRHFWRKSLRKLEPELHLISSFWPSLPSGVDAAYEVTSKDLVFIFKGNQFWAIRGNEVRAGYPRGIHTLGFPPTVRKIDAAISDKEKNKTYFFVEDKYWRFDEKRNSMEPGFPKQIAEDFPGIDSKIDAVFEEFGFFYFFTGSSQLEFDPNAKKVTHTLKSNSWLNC
Chain of MMP-9 (P14780 94-707, species assumed): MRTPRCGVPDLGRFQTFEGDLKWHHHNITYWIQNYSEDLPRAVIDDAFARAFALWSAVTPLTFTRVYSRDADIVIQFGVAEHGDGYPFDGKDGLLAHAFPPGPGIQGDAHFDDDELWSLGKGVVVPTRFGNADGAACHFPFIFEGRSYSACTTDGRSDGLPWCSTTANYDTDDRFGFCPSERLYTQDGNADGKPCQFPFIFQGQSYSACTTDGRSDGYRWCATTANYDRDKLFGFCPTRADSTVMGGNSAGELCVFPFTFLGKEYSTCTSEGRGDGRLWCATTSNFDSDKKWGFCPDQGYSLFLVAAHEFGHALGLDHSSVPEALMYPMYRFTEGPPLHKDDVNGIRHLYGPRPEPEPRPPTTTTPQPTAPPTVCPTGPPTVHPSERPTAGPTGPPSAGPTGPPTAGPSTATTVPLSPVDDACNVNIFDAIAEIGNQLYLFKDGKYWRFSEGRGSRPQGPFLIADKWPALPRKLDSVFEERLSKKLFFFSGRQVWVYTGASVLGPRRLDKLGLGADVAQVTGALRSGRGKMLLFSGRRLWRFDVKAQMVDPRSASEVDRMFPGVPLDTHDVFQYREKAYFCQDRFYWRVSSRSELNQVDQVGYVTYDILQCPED

As to `O=C(O)[C@@H](Cc1c[nH]c2ccccc12)NS(=O)(=O)c1ccc(-c2nnn(-c3ccccc3)n2)cc1` [MMI-166], the “inhibition of the gelatin degradation” value in experiment [1] (0.2 mg/kg orally) is “merely partial inhibition”; in experiment [1] (200.0 mg/kg orally), “complete inhibition of the gelatin degradation”; in experiment [1] (20.0 to 2.0 mg/kg orally) it was “the inhibition was lowered in sequence”. Moreover, the “Quantitative analysis using Optimas Ver.6” value turned out to be 41.3 in experiment [1] (0.2 mg/kg orally), 28.6 in experiment [1] (2.0 mg/kg orally), 13.7 in experiment [1] (20.0 mg/kg orally) and 5.3 in experiment [1] (200.0 mg/kg orally).
Regarding `O=C(NO)[C@@H](Cc1ccccc1)NS(=O)(=O)c1ccc(-c2ccccc2)cc1` [BPHA], the concentration for half-maximal inhibition (IC50) against MMP-1 was 974 nM; against MMP-2 it was 12 nM; against MMP-3, over 1000 nM; at MMP-7, 795 nM; on MMP-9, 16 nM; on MMP-14, 17 nM. Also, the “Quantitative analysis using Optimas Ver.6 (brightness in each tissue/size in each tissue)” value in experiment [1] stood at 8.6.
On to `O=C(NO)[C@H](Cc1ccccc1)NS(=O)(=O)c1ccc(-c2ccccc2)cc1` [(−)BPHA], for which the IC50 against MMP-1, against MMP-2, at MMP-3, at MMP-7, against MMP-9 and on MMP-14 was over 1000 nM each time. Besides, the “Quantitative analysis using Optimas Ver.6 (brightness in each tissue/size in each tissue)” value in experiment [1] was determined as 40.1.

By IC50 is commonly meant the concentration at which inhibition is half-maximal. A lower IC50 goes with greater potency.

Source of the values: patent US6627411B2, “Method for evaluating matrix metalloprotease inhibitory activity” (Shionogi & Co., Ltd., priority 1999, dated 2003).
